# Experimental data taken from EP0970046B1, “N-HYDROXY-2-(ALKYL, ARYL, OR HETEROARYL SULFANYL, SULFINYL OR SULFONYL)-3-SUBSTITUTED ALKYL, ARYL OR HETEROARYLAMIDES AS MATRIX METALLOPROTEINASE INHIBITORS” (Wyeth Holdings Corporation, priority 1997, dated 1998).
# Where two headings read alike, the source gives them in different places.
# How the values were obtained:
# TACE = molecular target: T1, TACE (Homo sapiens, UniProt P78536); test: Procedure for Measuring TACE Inhibition; type: biochemical; conditions: 1 µM; for inhibition at 1 µM: read-out: TACE % inhibition at 1 µM
# T1 construct: purchased Immunex
# Procedure: Using 96-well black microtiter plates, each well receives a solution composed of 10 µL TACE (Immunex, final concentration 1µg/mL), 70µL Tris buffer, pH 7.4 containing 10% glycerol (final concentration 10 mM), and 10 µL of test compound solution in DMSO (final concentration 1µM, DMSO concentration <1%) and incubated for 10 minutes at room temperature. The reaction is initiated by addition of a fluorescent peptidyl substrate (final concentration 100 µM) to each well and then shaking on a shaker for 5 sec. The reaction is read (excitation 340 nm, emission 420 nm) for 10 min. and the increase in fluorescence over time is plotted as a linear line. The slope of the line is calculated and represents the reaction rate. The linearity of the reaction rate is confirmed (r^2 >0.85). The mean (x±sem) of the control rate is calculated and compared for statistical significance (p<0.05) with drug-treated rates using Dunnett's multiple comparison test.
# MMP 13 = MMP 13 (Homo sapiens, UniProt P45452); test: MMP 13 inhibition (HTS; method not described); type: biochemical; conditions: for inhibition at 0.2 µM: read-out: MMP 13 % inhibition at 0.2 µM (HTS); for inhibition at 0.036 µM: read-out: MMP 13 % inhibition at 36 nM (HTS); for inhibition at 3600 µM: read-out: MMP 13 % inhibition at 3.6 mM (HTS)
# T1 sequence (P78536 215-824): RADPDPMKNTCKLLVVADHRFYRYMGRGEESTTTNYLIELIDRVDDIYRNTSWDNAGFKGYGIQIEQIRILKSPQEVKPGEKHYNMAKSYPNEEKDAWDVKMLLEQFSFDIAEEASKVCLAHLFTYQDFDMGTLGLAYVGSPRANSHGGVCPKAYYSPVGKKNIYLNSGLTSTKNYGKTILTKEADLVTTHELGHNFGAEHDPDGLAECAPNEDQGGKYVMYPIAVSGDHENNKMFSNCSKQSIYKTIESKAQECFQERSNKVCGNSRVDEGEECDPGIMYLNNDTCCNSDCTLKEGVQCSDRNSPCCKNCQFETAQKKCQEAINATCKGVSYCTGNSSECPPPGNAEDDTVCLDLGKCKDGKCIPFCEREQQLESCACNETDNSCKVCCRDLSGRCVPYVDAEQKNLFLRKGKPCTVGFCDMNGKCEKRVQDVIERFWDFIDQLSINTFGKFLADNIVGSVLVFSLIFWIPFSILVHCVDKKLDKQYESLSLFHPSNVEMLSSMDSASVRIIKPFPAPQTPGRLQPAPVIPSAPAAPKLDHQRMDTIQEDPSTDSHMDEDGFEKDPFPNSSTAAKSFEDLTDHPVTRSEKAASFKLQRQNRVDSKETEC
compound,measurement,setting,value
"O=C(CCC(C(=O)NO)S(=O)(=O)c1ccc(Br)cc1)NO (centres unmarked) [Example 136, 4-Hydroxycarbamoyl-4-(4-bromo-benzenesulfonyl)-butyric acid hydroxyamide]",inhibition at 1 µM,TACE; Examples 110-168,42.7%
same,inhibition at 0.2 µM,MMP 13; HTS,89%
"CC(C)C(C(=O)NO)S(=O)(=O)c1ccc2ccccc2c1 (centres unmarked) [Example 116, N-Hydroxy-3-methyl-2-(naphthalen-2-ylsulfonyl)-butyramide]",inhibition at 1 µM,TACE; Examples 110-168,9.1%
same,inhibition at 0.2 µM,MMP 13; HTS,0%
"O=C(NO)C(COCc1ccccc1)SCc1ccccc1Cl (centres unmarked) [Example 149, 3-Benzyloxy-N-hydroxy-2-(2-chloro-benzylsulfanyl)-propionamide]",inhibition at 1 µM,TACE; Examples 110-168,4.41%
same,inhibition at 0.2 µM,MMP 13; HTS,13%
5-Pyridin-2-yl-thiophene-2-sulfonic acid 4(1-hydroxycarbamoyl-heptylsulfinyl)-hydroxy amide [Example 237],TACE % inhibition at 1 µM,TACE; Examples 169-240,38.2%
same,MMP 13 % inhibition at 36 nM (HTS),"MMP 13; 36 nM, HTS",55%
"CCCCCCC(C(=O)NO)S(=O)(=O)c1cc(Cl)ccc1Cl (centres unmarked) [Example 161, 2-(2,5-Dichlorobenzenesulfonyl)-octanoic acid hydroxyamide]",inhibition at 1 µM,TACE; Examples 110-168,12.7%
same,inhibition at 0.2 µM,MMP 13; HTS,0%
"CCCCCCC(Sc1ccc(N2CCNCC2)cc1)C(=O)NO (centres unmarked) [Example 231, 2-(4-Piperazin-1-yl-phenylsulfanyl)-octanoic acid hydroxyamide]",inhibition at 1 µM,TACE; Examples 169-240,41.6%
same,inhibition at 0.036 µM,"MMP 13; 36 nM, HTS",23%
"CC(C)C(C(=O)NO)S(=O)(=O)CCc1ccccc1 (centres unmarked) [Example 118, N-Hydroxy-3-methyl-2-phenethylsulfonyl-butyramide]",inhibition at 1 µM,TACE; Examples 110-168,16.7%
same,inhibition at 0.2 µM,MMP 13; HTS,24%
"O=C(NO)C(COCc1ccccc1)S(=O)(=O)Cc1ccccc1Cl (centres unmarked) [Example 151, 3-Benzyloxy-N-hydroxy-2-(2-chloro-benzylsulfonyl)-propionamide]",inhibition at 1 µM,TACE; Examples 110-168,5.93%
same,inhibition at 0.2 µM,MMP 13; HTS,6%
N-Hydroxy-3-methyl-2-phenethylsulfinyl-butyramide [Example 117],TACE % inhibition at 1 µM,TACE; Examples 110-168,8.1%
same,MMP 13 % inhibition at 0.2 µM (HTS),MMP 13; HTS,7%
"CC(C)CCSC(C)C(=O)NO (centres unmarked) [Example 112, N-Hydroxy-2-(3-methyl-butane-1-sulfanyl)-propionamide]",TACE % inhibition at 1 µM,TACE; Examples 110-168,33.7%
same,MMP 13 % inhibition at 0.2 µM (HTS),MMP 13; HTS,50%
"CC(C)CCS(=O)(=O)C(C)C(=O)NO (centres unmarked) [Example 113, N-Hydroxy-2-(3-methyl-butane-1-sulfonyl)-propionamide]",inhibition at 1 µM,TACE; Examples 110-168,13.1%
same,inhibition at 0.2 µM,MMP 13; HTS,0%
"CCCCCCC(C(=O)NO)[S+]([O-])c1ccccn1 (centres unmarked) [Example 178, 2-(2-Pyridine-2-sulfinyl)-octanoic acid hydroxyamide]",inhibition at 0.036 µM,"MMP 13; 36 nM, HTS",-10%
same,inhibition at 3600 µM,MMP 13,39%
"CCCCCCC(C(=O)NO)S(=O)(=O)c1cccc(OC)c1 (centres unmarked) [Example 164, 2-(3-Methoxybenzenesulfonyl)-octanoic acid hydroxyamide]",inhibition at 0.2 µM,MMP 13; HTS,74%
"CCCCCCC(Sc1ccc(OS(=O)(=O)c2ccccc2)cc1)C(=O)NO (centres unmarked) [Example 232, Benzenesulfonic acid 4-(1-hydroxycarbamoyl-heptylsulfanyl)-phenyl ester]",inhibition at 0.036 µM,"MMP 13; 36 nM, HTS",30%
"CCCCCCC(C(=O)NO)S(=O)(=O)c1[nH]c2ccccc2[n+]1[O-] (centres unmarked) [Example 181, 2-(3-Oxy-1H-benzimidazole-2-sulfonyl)-octanoic acid hydroxyamide]",inhibition at 0.036 µM,"MMP 13; 36 nM, HTS",6%
same,inhibition at 360 µM,MMP 13; read-out: MMP 13 % inhibition at 0.36 mM (HTS),35%
same,inhibition at 3600 µM,MMP 13,62%
"CCCCCCC(C(=O)NO)S(=O)(=O)CC1NC(=O)NC1=O (centres unmarked) [Example 198, 2-(2,5-Dioxo-imidazolidin-4-ylmethylsulfonyl)-octanoic acid hydroxyamide]",inhibition at 0.036 µM,"MMP 13; 36 nM, HTS",-39%
"CCCCCCC(Sc1ccc(OC)c(OC)c1)C(=O)NO (centres unmarked) [Example 165, 2-(3,4-Dimethoxybenzenesulfanyl)-octanoic acid hydroxyamide]",inhibition at 0.2 µM,MMP 13; HTS,71%
"CCCCCCC(C(=O)NO)S(=O)(=O)CCc1cccc[n+]1[O-] (centres unmarked) [Example 183, 2-[2-(1-Oxy-pyridin-2-yl)-ethanesulfonyl]-octanoic acid hydroxyamide]",inhibition at 0.036 µM,"MMP 13; 36 nM, HTS",-6%
"CCCCCCCCC(C(=O)NO)[S+]([O-])c1cccc(OC)c1 (centres unmarked) [Example 141, 2-(3-Methoxy-benzenesulfinyl)decanoic acid hydroxamide]",inhibition at 0.2 µM,MMP 13; HTS,32%
"N=C(N)NCCCC(Sc1cccc(F)c1)C(=O)NO (centres unmarked) [Example 155, 2-(3-fluorophenylsulfanyl)-5-guanidino-pentanoic acid hydroxyamide]",inhibition at 0.2 µM,MMP 13; HTS,31%
"CCCCCCC(Sc1nc2ccccc2[nH]1)C(=O)NO (centres unmarked) [Example 168, 2-(2-Benzimidazol-2-ylsulfanyl)-octanoic acid hydroxyamide]",inhibition at 0.2 µM,MMP 13; HTS,21%
(1-Hydroxycarbamoyl-propane-1-sulfinyl)-propionic acid hydroxyamide [Example 123],MMP 13 % inhibition at 0.2 µM (HTS),MMP 13; HTS,0%
"N=C(N)NCCCC(Sc1ccccc1Br)C(=O)NO (centres unmarked) [Example 157, 2-(2-Bromosulfanyl)-5-guanidino-pentanoic acid hydroxyamide]",inhibition at 0.2 µM,MMP 13; HTS,19%
"CSc1ccc(SC(COCc2ccccc2)C(=O)NO)cc1 (centres unmarked) [Example 146, 3-benzyloxy-N-hydroxy-2-(4-methanesulfanyl-benzenesulfanyl)-propionamide]",inhibition at 0.2 µM,MMP 13; HTS,68%
"CCCCCCC(Sc1cc(Cl)ccc1Cl)C(=O)NO (centres unmarked) [Example 160, 2-(2,5-dichlorobenzenesulfanyl)-octanoic acid hydroxyamide]",inhibition at 0.2 µM,MMP 13; HTS,14%
"C[S+]([O-])c1ccc([S+]([O-])C(COCc2ccccc2)C(=O)NO)cc1 (centres unmarked) [Example 147, 3-Benzyloxy-N-hydroxy-2-(4-methanesulfinyl-benzenesulfinyl)-propionamide]",inhibition at 0.2 µM,MMP 13; HTS,73%
"O=C(CCC(C(=O)NO)S(=O)(=O)c1ccccc1C(F)(F)F)NO (centres unmarked) [Example 139, 4-Hydroxycarbamoyl-4-(2-trifluoromethyl-benzenesulfonyl)-butyric acid hydroxyamide]",inhibition at 0.2 µM,MMP 13; HTS,8%
"O=C(CCC(C(=O)NO)[S+]([O-])c1ccc(Br)cc1)NO (centres unmarked) [Example 135, 4-Hydroxycarbamoyl-4-(4-bromo-benzenesulfinyl)-butyric acid hydroxyamide]",inhibition at 0.2 µM,MMP 13; HTS,79%
"CCCCCCC(C(=O)NO)S(=O)(=O)c1nccs1 (centres unmarked) [Example 195, 2-(Thiazol-2-ylsulfonyl)-octanoic acid hydroxyamide]",inhibition at 0.036 µM,"MMP 13; 36 nM, HTS",-9%
"CCCCCCCCC(C(=O)NO)S(=O)(=O)c1ccc(S(C)(=O)=O)cc1 (centres unmarked) [Example 145, 2-(4-methanesulfonyl-benzenesulfonyl)decanoic acid hydroxamide]",inhibition at 0.2 µM,MMP 13; HTS,45%
"CCCCCCC(C(=O)NO)S(=O)(=O)c1ccc(OS(=O)(=O)c2ccccc2[N+](=O)[O-])cc1 (centres unmarked) [Example 238, 2-Nitro-benzenesulfonic acid 4-(1-hydroxycarbamoyl-heptylsulfonyl)-hydroxyamide]",inhibition at 0.036 µM,"MMP 13; 36 nM, HTS",22%
"CCCCCCC(Sc1cccc(OC)c1)C(=O)NO (centres unmarked) [Example 162, 2-(3-Methoxybenzenesulfanyl)-ocranoic acid hydroxyamide]",inhibition at 0.2 µM,MMP 13; HTS,13%
"CCCCCCC(Sc1ccc(OCc2ccccc2)cc1)C(=O)NO (centres unmarked) [Example 199, 2-(4-Benzyloxy-phenylsulfanyl)-octanoic acid hydroxyamide]",inhibition at 0.036 µM,"MMP 13; 36 nM, HTS",-10%
"COC(=O)CCC(Sc1ccc(SC)cc1)C(=O)NO (centres unmarked) [Example 131, 4-Hydroxycarbamoyl-4-(4-methanesulfanyl-phenylsulfanyl)-butyric acid methyl ester]",inhibition at 0.2 µM,MMP 13; HTS,71%
"CCCCCCCCC(Sc1cccc(OC)c1)C(=O)NO (centres unmarked) [Example 140, 2-(3-methoxy-benzenesulfanyl)decanoic acid hydroxamide]",inhibition at 0.2 µM,MMP 13; HTS,29%
"CC(=O)Nc1ccc([S+]([O-])C(Cc2ccccc2)C(=O)NO)cc1 (centres unmarked) [Example 129, 2-(4-Acetylamino-benzenesulfinyl)-N-hydroxy-3-phenyl-propionamide]",inhibition at 0.2 µM,MMP 13; HTS,90%
"O=C(CCC(C(=O)NO)[S+]([O-])c1ccccc1C(F)(F)F)NO (centres unmarked) [Example 138, 4-Hydroxycarbamoyl-4-(2-trifluoromethyl-benzenesulfinyl)-butyric acid hydroxyamide]",inhibition at 0.2 µM,MMP 13; HTS,20%
"CCCCCCCCC(C(=O)NO)S(=O)(=O)c1cccc(OC)c1 (centres unmarked) [Example 142, 2-(3-Methoxy-benzenesulfonyl)decanoic acid hydroxamide]",inhibition at 0.2 µM,MMP 13; HTS,69%
"N=C(N)NCCCC(C(=O)NO)S(=O)(=O)c1ccccc1Br (centres unmarked) [Example 159, 2-(2-Bromosulfonyl)-5-guanidino-pentanoic acid hydroxyamide]",inhibition at 0.2 µM,MMP 13; HTS,49%
"CCCCCCC(C(=O)NO)[S+]([O-])c1nc2ccccc2[nH]1 (centres unmarked) [Example 177, 2-(2-Benzimidazol-2-ylsulfinyl)-octanoic acid hydroxyamide]",inhibition at 0.036 µM,"MMP 13; 36 nM, HTS",5%
"CCCCCCC(SCCc1ccccn1)C(=O)NO (centres unmarked) [Example 173, 2-(2-Pyridin-2-yl-ethylsulfanyl)-octanoic acid hydroxyamide]",inhibition at 0.036 µM,"MMP 13; 36 nM, HTS",18%
"N=C(N)NCCCC(C(=O)NO)[S+]([O-])c1ccccc1Br (centres unmarked) [Example 158, 2-(2-Bromosulfinyl)-5-guanidino-pentanoic acid hydroxyamide]",inhibition at 0.2 µM,MMP 13; HTS,33%
